Measured values as given in paper PMC11054459 (Molecules, 2024).
Blank lines part the entries; values can stand above or below the molecule they belong to. Residues, ends and D or L forms follow the SMILES beside them. No end group written: not given here. *: point of attachment. X1 = NC(=O)C[C@H](N=C[C@H](O)[C@@H](O)[C@@H](O)[C@H](O)CO)C(=O)*; X2 = NC(=O)C[C@H](N=C[C@H](O)[C@@H](O)[C@H](O)[C@H](O)CO)C(=O)*

What was measured:
[1] = Body weight of MC38 tumor-bearing mice; assay type: in vivo, mouse; details: 1 and 3 mg/kg i.p. once daily for two weeks
Procedure: Animal experiments were approved by the Zhengzhou University Ethics Committee. MC38 cells (1 × 10^6) were subcutaneously inoculated into C57BL/N mice. The MC38 tumor-bearing mice were randomly allocated to three groupsn (n = 5 per group): a control group (NS, normal saline containing 1% DMSO); a D-gal-^LPPA-1 peptide group (1 mg/kg); and a D-gal-^LPPA-1 peptide group (3 mg/kg). Daily intraperitoneal injections of the peptide were initiated when the tumor volume reached 50–90 mm^3. The tumor dimensions, including length, width, and height, were measured, and tumor volume was calculated using the following formula:V = 1/2 × A (length) × B (width) × C (height).

[2] = system: heart, liver, spleen, lung, kidney of MC38 tumor-bearing mice; experiment: H&E staining of major organs; assay type: in vivo, mouse; details: 1 and 3 mg/kg i.p., vs. normal saline control
Procedure: Tumor tissue and heart, liver, spleen, lung, and kidney tissues were isolated from MC38 tumor-bearing mice and fixed in 4.0% paraformaldehyde. The samples were subsequently embedded in paraffin and subjected to hematoxylin and eosin staining. The results were analyzed using ImageJ1 software (NIH, Bethesda, MD, USA).

mouse PD-L1 (mPD-L1) = mouse PD-L1 (mPD-L1) (Mus musculus, UniProt Q9EP73); experiment: MST binding assay, mPD-L1; details: microscale thermophoresis (MST); mPD-L1-His 800 nM, RED-NHS dye, PBST; peptide 400 μM to 0.012 μM; triplicate, mean ± SEM; read-out: dissociation constant (KD), mPD-L1
Procedure: The concentrations of hPD-L1-His and mPD-L1-His proteins were adjusted to 200 nM and 800 nM, respectively, utilizing PBST as the diluent. Simultaneously, the concentration of RED-NHS676 dye was diluted to 100 nM in PBST. Subsequently, protein and dye were subjected to co-incubation at a volumetric ratio of 1:1 for a duration of 30 min, thereby facilitating the generation of labeled proteins. To establish peptide gradients, a progressive dilution was initiated from an initial concentration of 400 μM, eventually reaching 0.012 μM. Following this preparation, a homogenous amalgamation comprising 5 μL of labeled protein and 5 μL of small molecule diluent was extracted for further experimentation. Subsequently, the samples were transferred to standard capillary tubes and analyzed by an MST instrument (Nano Temper, Monolith NT.115, München, Germany).

[3] = molecular target: hPD-1/hPD-L1 interaction (CHO-K1-hPD-1 cells, hPD-L1 protein) (Homo sapiens, UniProt Q9NZQ7); experiment: Peptide blocking assay (flow cytometry); assay type: cell-based; details: CHO-K1-hPD-1 cells 3 × 10^5 per sample, 50 ng hPD-L1, peptide + protein 30 min, + cells 30 min, on ice, 200 μM to 1.6 μM, means ± SEMs from three independent biological triplicates, read-out: IC50, blocking of PD-1/PD-L1 interaction
Procedure: The interaction between PD-1 and PD-L1 plays a pivotal role in suppressing T-cell function, and disrupting this interaction has emerged as a viable therapeutic strategy in cancer treatment. Thus, we investigated the inhibitory potential of D-glu-^LPPA-1 and D-gal-^LPPA-1 on the PD-1/PD-L1 interaction. To conduct the experiment, CHO-K1-hPD-1 cells were harvested at a density of 3 × 10^5 cells per sample. Peptides were solubilized to a concentration of 200 μM and serially diluted before coincubation with 50 ng of the hPD-L1 protein for 30 min. The protein–peptide mixture was introduced into CHO-K1-hPD-1 cells, which were then coincubated for an additional 30 min. The anti-Fc PE antibody was then added and incubated for 30 min. Flow cytometry was used to evaluate the efficacy of the peptides in blocking the hPD-1/hPD-L1 interaction.
For subsequent multi-concentration blocking assays, peptides were prepared in concentration gradients spanning 200 μM, 100 μM, 50 μM, 25 μM, 12.5 μM, and 6.25 μM. Peptides at different concentrations were incubated with hPD-L1 (mPD-L1) protein (50 ng) on ice for 30 min. Subsequently, the mixture was added to CHO-K1-hPD-1 or CHO-K1-mPD-1 cells and coincubated on ice for 30 min. […] The ability of the peptide to block the PD-1/PD-L1 interaction was assessed using flow cytometry.

mPD-L1-His = mPD-L1-His (mouse, UniProt Q9EP73 19-290, labelled with RED-NHS676 dye); experiment: MST; His-tagged PD-L1 (hPD-L1 200 nM, mPD-L1 800 nM) labelled 1:1 with 100 nM RED-NHS676 dye in PBST for 30 min; peptide diluted from 400 μM to 0.012 μM; standard capillaries, Monolith NT.115; details: both partners purified
hPD-L1-His = hPD-L1-His (human, UniProt Q9NZQ7 19-290, labelled with RED-NHS676 dye); experiment: as above; details: both partners purified
hPD-L1-Fc = molecular target: T1, hPD-L1-Fc (human, UniProt Q9NZQ7 19-238); experiment: flow cytometry on cells; blocking assay: peptide in serial dilution from 200 μM pre-incubated with 50 ng hPD-L1-Fc on ice for 30 min, mixture added to CHO-K1-hPD-1 cells (3 x 10^5 per sample) for 30 min, detected with anti-Fc PE antibody; details: both partners purified
T1 construct: human PD-L1 (hPD-L1), recombinant protein fused to Fc; also called hPD-L1 protein
T1 sequence (Q9NZQ7 19-238): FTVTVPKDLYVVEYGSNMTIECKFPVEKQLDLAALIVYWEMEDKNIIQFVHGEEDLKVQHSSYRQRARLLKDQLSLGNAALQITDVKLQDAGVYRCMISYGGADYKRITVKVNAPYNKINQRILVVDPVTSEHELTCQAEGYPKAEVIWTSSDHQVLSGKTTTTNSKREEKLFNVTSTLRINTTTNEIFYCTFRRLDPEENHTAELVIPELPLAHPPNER

hPD-1/hPD-L1 interaction (CHO-K1-hPD-1 cells, hPD-L1 protein), sequence (Q9NZQ7 19-238 limits assumed): as the sequence (Q9NZQ7 19-238) above
hPD-L1-His, sequence (Q9NZQ7 19-290): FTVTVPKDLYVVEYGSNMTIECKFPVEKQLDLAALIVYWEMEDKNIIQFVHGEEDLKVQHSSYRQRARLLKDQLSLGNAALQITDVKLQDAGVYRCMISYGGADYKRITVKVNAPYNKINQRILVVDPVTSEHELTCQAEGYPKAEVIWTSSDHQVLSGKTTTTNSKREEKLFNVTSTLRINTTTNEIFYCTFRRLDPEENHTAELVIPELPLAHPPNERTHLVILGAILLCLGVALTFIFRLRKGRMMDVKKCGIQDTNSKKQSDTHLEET
mPD-L1-His, sequence (Q9EP73 19-290): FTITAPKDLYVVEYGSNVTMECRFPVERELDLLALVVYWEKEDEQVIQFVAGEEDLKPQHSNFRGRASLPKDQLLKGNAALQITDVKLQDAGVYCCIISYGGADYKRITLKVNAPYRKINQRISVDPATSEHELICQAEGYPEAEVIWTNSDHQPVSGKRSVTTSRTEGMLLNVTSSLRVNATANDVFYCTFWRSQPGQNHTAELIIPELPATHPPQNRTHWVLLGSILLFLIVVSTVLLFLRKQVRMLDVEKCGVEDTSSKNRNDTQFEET
mouse PD-L1 (mPD-L1), sequence (Q9EP73 19-290): as above

Molecule: C[C@@H](O)[C@H](NC(=O)[C@@H]1CCCN1C(=O)[C@H](CCCCN)NC(=O)[C@H](CO)NC(=O)[C@H](Cc1ccc(O)cc1)NC(=O)[C@H](CC(N)=O)N=C[C@H](O)[C@@H](O)[C@@H](O)[C@H](O)CO)C(=O)N[C@@H](CC(=O)O)C(=O)N[C@@H](CCCNC(=N)N)C(=O)N[C@@H](CCC(N)=O)C(=O)N[C@@H](Cc1ccc(O)cc1)C(=O)N[C@@H](Cc1c[nH]cn1)C(=O)N[C@@H](Cc1ccccc1)C(=O)O [D-gal-^LPPA-1] (X1-YSKPTDRQYHF-OH)
body weight [1]: no significant changes in body weight | organ toxicity (H&E staining) [2]: no apparent toxicity observed | Kd (mouse PD-L1 (mPD-L1)): 0.015 ± 0.006 µM

IC50 [3]: 75.5 ± 20.3 µM
Molecule: C[C@@H](O)[C@H](NC(=O)[C@@H]1CCCN1C(=O)[C@H](CCCCN)NC(=O)[C@H](CO)NC(=O)[C@H](Cc1ccc(O)cc1)NC(=O)[C@H](CC(N)=O)N=C[C@H](O)[C@@H](O)[C@H](O)[C@H](O)CO)C(=O)N[C@@H](CC(=O)O)C(=O)N[C@@H](CCCNC(=N)N)C(=O)N[C@@H](CCC(N)=O)C(=O)N[C@@H](Cc1ccc(O)cc1)C(=O)N[C@@H](Cc1c[nH]cn1)C(=O)N[C@@H](Cc1ccccc1)C(=O)O [D-glu-^LPPA-1] (X2-YSKPTDRQYHF-OH)

Kd (mPD-L1-His): 0.0149 µM | Kd (hPD-L1-His): 0.047 µM | IC50 (hPD-L1-Fc): 101 µM
B1: D-gal-^LPPA-1 (peptide)
peptide: N(D‑galactose)YSKPTDRQYHF
notes: L-type peptide ^LPPA-1, L-amino-acid analogue of the PD-L1-targeting D-peptide ^DPPA-1; printed in three-letter code; source: synthetic peptide (Fmoc solid-phase synthesis, purified by reverse-phase HPLC)

IC50 (hPD-L1-Fc): 75 µM
B2: D-glu-^LPPA-1 (peptide)
peptide: N(D‑glucose)YSKPTDRQYHF
notes: as for B1
